Earlier results as cited in US10702606B2, “Peptide composition” (MENICON CO., LTD., priority 2015, dated 2020).
Like-named read-outs stand apart in the source and are kept apart here.

- pKa (25° C., only a pKa of 3.5 or more and less than 7.5 is described): 7.1
- pKa (buffering agent, temperature not given): 7.1
Compound: NCCN [Ethylenediamine, ethylenediamine]
